Measured values reported in patent publication US20240067632A1, “WEE1 Degrading Compounds and Uses Thereof” (Bristol-Myers Squibb Company, priority 2022, published 2024).
Like-named read-outs stand apart in the source and are kept apart here.

Experiments:
WEE1 = target: T1, WEE1 (Homo sapiens, UniProt P30291+Q96SW2); assay: WEE1-ePL degradation assay (LentiX-WEE1-ePL-GSPT1-ND cells, InCELL Hunter luminescence, 4 h); type: cell-based; settings: 293T-LentiX WEE1-ePL cells; for DC50: read-out: 293T-LentiX WEE1-ePL Degradation 4 hr (EC50)
T1 construct: C-terminal ePL-tagged (DiscoverX, Fremont, CA) full-length WEE1 expression construct; expressed in transfected cells; host or cells: LentiX-HEK293T (Invitrogen), lentiviral transduction; co-expressing GSPT1-GN (G576N, lacking the first 158 amino acids)
Method: To generate LentiX-WEE1-ePL-GSPT1-ND cells for the WEE1 degradation assay, LentiX-HEK293T (Invitrogen) were transduced by lentivirus with a C-terminal ePL-tagged (DiscoverX, Fremont, CA) full-length WEE1 expression construct. […] Cells were selected and maintained in complete DMEM media (DMEM, 10% Heat Inactivated FBS, 400 μg/mL Geneticin, and 1 μg/mL puromycin at 37 C and 5% CO2). Cells were passaged every 3-4 days by reseeding 1×10^6 cells in a T150 flask.
Cells were dispensed into 384-well white plates (Corning #3570, NY) that were pre-spotted with compounds using an acoustic dispenser (Echo acoustic transfer system, Beckman Coulter Life Sciences, Carlsbad, CA) as a 10-point dose-response curve with a 3-fold dilution starting at either 1 uM or 10 uM and including a DMSO control. Twenty-five microliters of media containing 2500 cells for LentiX-oeWEE1-ePL was dispensed per well. Assay plates were incubated at 37° C. with 5% CO2 for four hours (WEE1) After incubation, 25 μL of the InCELL Hunter™ Detection Reagent Working Solution (DiscoverX, Fremont, CA) was added to each well and incubated at room temperature for 30 minutes protected from light. After 30 minutes, luminescence was read on a PHERAstar luminometer (Cary, NC).
To determine the half-maximal effective concentration (EC50) values for WEE1-ePL degradation, a four parameter logistic model was used: (Sigmoidal Dose-Response Model) (FIT=(A+((B−A)/1+((C/x)^D)))) where C is the inflection point (EC50), D is the Hill slope, and A and B are the low and high limits of the fit respectively). The lower limit of the fit (value A) is referred to as Ymin. […] The maximum limit constraint, Ymax, is similarly derived using DMSO control. The curves were processed and evaluated using Activity Base (IDBS, Alameda, CA).

MKN45 cells = assay: MKN45 cell proliferation assay (Cell-Titer-Glo, 120 h); type: cell-based; settings: for EC50: Homo sapiens, MKN-45, 120 h, Cell-Titer-Glo, read-out: MKN45 Cell Prolif. 120 hr (EC50); for MKN45 Cell Prolif. 120 hr (Ymin-Obs): minimal percent of DMSO control observed in the concentrations tested
Method: MKN45 cells were obtained from Celgene internal cell banks and cultured in RPMI complete media (RPMI-1640, 1× Penicillin/Streptomycin, 1× glutamine, 1× Sodium Pyruvate, Non-essential Amino Acids, 10% Fetal Bovine serum, all component from Thermo-Fisher). Compounds were dispensed into 384-well plates using an HP DE300 compound printer in triplicate with 8 compounds on each plate. For each compound, a 10-point dose response was printed at half-log dilutions starting at either 1 uM or 10 uM. The DMSO concentration was kept constant for a final assay concentration of 0.1% per well assuming 50 ul final media volume. Compound plates were sealed and frozen at −20 C until use.
For each assay batch, compound plates were thawed and allowed to reach room temperature, and cells were seeded at 400 cells per well in 50 ul complete RPMI media. After 120 hours of incubation at 37 C and 5% CO2, cells were lysed by addition of 25 μL of Cell-Titer-Glo Reagent (Promega Corporation, Madison, WI), as per manufacturer's instructions, protected from light, shaken for 45 minutes, and total luminescence read by a Perkin Elmer Envision plate reader. Total luminescence signal is linearly correlated with cell number remaining in the well.
Luminescence data was processed per plate by subtracting reagent-only “blank” well luminescence from all measured values and calculating a percent of DMSO control value for each treatment well. Then, to determine the half-maximal effective concentration (EC50) values for cell growth inhibition, a four parameter logistic model was fit to the data for each DMSO-normalized compound: Sigmoidal Dose-Response Model: (FIT=(A+((B−A)/1+((C/x)^D)))) where C is the inflection point (EC50), D is the Hill slope, and A and B are the low and high limits of the fit respectively. The lower limit of the fit (value A) is referred to as Ymin-calculated. The minimal percent of DMSO control that is observed in the concentrations tested for each compound is labeled as “Ymin-obs”, and was recorded and reported in the tables. Sigmoidal fit curves were processed and evaluated using Activity Base (IDBS, Alameda, CA).

[1] = lower limit of the fit (0 = luciferase inhibitor, Ymax = DMSO control)
[2] = lower limit of the fit (Ymin=0 luciferase inhibitor, Ymax DMSO control)

SMILES | 293T-LentiX WEE1-ePL Degradation 4 hr (Ymin) (WEE1; [1]) | DC50 (WEE1) [µM] | EC50 (MKN45 cells; growth inhibition) [µM] | MKN45 Cell Prolif. 120 hr (Ymin-Obs) (MKN45 cells) | EC50 (MKN45 cells) [µM] | 293T-LentiX WEE1-ePL Degradation 4 hr (Ymin) (WEE1; [2])
O=C1CCC(N2Cc3cc(O[C@H]4CCN(Cc5ccc6nc(N7C[C@@H]8C9CCC(O9)[C@@H]8C7)ccc6c5)C4)ccc3C2=O)C(=O)N1 (stereo partly shown) | 38 | 0.00319 | 0.00383 | 10.93 |  | 
O=C1CCC(N2Cc3cc(O[C@H]4CCN(Cc5ccc6nc(N7C[C@@H]8C9CCC(O9)[C@@H]8C7)ncc6c5)C4)ccc3C2=O)C(=O)N1 (stereo partly shown) | 35 | 0.00925 | 0.0105 | 12.82 |  | 
O=C1CC[C@H](N2Cc3cc(O[C@H]4CCN(Cc5ccc6nc([C@@H]7CCOC7)ncc6c5)C4)ccc3C2=O)C(=O)N1 | 33 | 0.018 | 0.013 | 9.409 |  | 
O=C1CCC(N2Cc3cc(O[C@@H]4CCN(Cc5ccc6nc([C@@H]7CCOC7)ncc6c5)C4)ccc3C2=O)C(=O)N1 (relative stereo) [rel-3-(1-oxo-5-{[(3R)-1-({2-[(3S)-oxolan-3-yl]quinazolin-6-yl}methyl)pyrrolidin-3-yl]oxy}-2,3-dihydro-1H-isoindol-2-yl)piperidine-2,6-dione] | 34 | 0.0218 | 0.0185 | 7.06 |  | 
CC(c1cnc2ccccc2c1)N1CC[C@@H](Oc2ccc3c(c2)CN(C2CCC(=O)NC2=O)C3=O)C1 (stereo in doubt) [rel-3-(1-oxo-5-{[(3R)-1-[1-(quinolin-3-yl)ethyl]pyrrolidin-3-yl]oxy}-2,3-dihydro-1H-isoindol-2-yl)piperidine-2,6-dione] | 50.89 | 0.0834 | > 10 | 76.71 |  | 
O=C1CCC(N2Cc3cc(O[C@@H]4CCN(Cc5cnc6ccccc6c5)C4)ccc3C2=O)C(=O)N1 (stereo in doubt) [rel-3-(1-oxo-5-{[(3R)-1-[(quinolin-3-yl)methyl]pyrrolidin-3-yl]oxy}-2,3-dihydro-1H-isoindol-2-yl)piperidine-2,6-dione] | 26.82 | 0.00657 | 0.057 | 11.39 |  | 
O=C1CCC(N2C(=O)c3ccc(O[C@H]4CCN(Cc5cnc6ccccc6c5)C4)cc3C2=O)C(=O)N1 (stereo partly drawn) [2-(2,6-dioxopiperidin-3-yl)-5-{[(3S)-1-[(quinolin-3-yl)methyl]pyrrolidin-3-yl]oxy}-2,3-dihydro-1H-isoindole-1,3-dione] | 30.205 | 0.0329 | 0.621 | 15.39 |  | 
O=C1CCC(N2C(=O)c3ccc(O[C@H]4CCN(Cc5ccnc6ccccc56)C4)cc3C2=O)C(=O)N1 (stereo partly drawn) [2-(2,6-dioxopiperidin-3-yl)-5-{[(3S)-1-[(quinolin-4-yl)methyl]pyrrolidin-3-yl]oxy}-2,3-dihydro-1H-isoindole-1,3-dione] | 38.05 | 1.23 | 2.51 | 48.18 |  | 
O=C1CCC(N2C(=O)c3ccc(O[C@H]4CCN(Cc5cccc6ncccc56)C4)cc3C2=O)C(=O)N1 (stereo partly drawn) [2-(2,6-dioxopiperidin-3-yl)-5-{[(3S)-1-[(quinolin-5-yl)methyl]pyrrolidin-3-yl]oxy}-2,3-dihydro-1H-isoindole-1,3-dione] | 30.52 | 0.0792 | 2.23 | 44.93 |  | 
COC[C@@H]1CCC[C@H]1c1ccc2cc(CN3CC[C@H](Oc4ccc5c(c4)CN(C4CCC(=O)NC4=O)C5=O)C3)ccc2n1 (stereo partly drawn) [3-(5-{[(3S)-1-({2-[(1R,2R)-2-(methoxymethyl)cyclopentyl]quinolin-6-yl}methyl)pyrrolidin-3-yl]oxy}-1-oxo-2,3-dihydro-1H-isoindol-2-yl)piperidine-2,6-dione] |  |  |  | 12.33 | 0.0166 | 
COC[C@H]1CCC[C@H]1c1ccc2cc(CN3CC[C@H](Oc4ccc5c(c4)CN(C4CCC(=O)NC4=O)C5=O)C3)ccc2n1 (stereo partly drawn) [3-(5-{[(3S)-1-({2-[(1R,2S)-2-(methoxymethyl)cyclopentyl]quinolin-6-yl}methyl)pyrrolidin-3-yl]oxy}-1-oxo-2,3-dihydro-1H-isoindol-2-yl)piperidine-2,6-dione] |  |  |  | 15.33 | 0.0123 | 
O=C1CC[C@H](N2Cc3cc(O[C@@H]4CN(Cc5ccc6nc(N7CCOCC7)ncc6c5)CC4(F)F)ccc3C2=O)C(=O)N1 [(3S)-3-(5-{[(3R)-4,4-difluoro-1-{[2-(morpholin-4-yl)quinazolin-6-yl]methyl}pyrrolidin-3-yl]oxy}-1-oxo-2,3-dihydro-1H-isoindol-2-yl)piperidine-2,6-dione] |  |  |  | 10.03 | 0.0178 | 
O=C1CC[C@H](N2Cc3cc(O[C@H]4CCN(Cc5ccc6nc(C7CCOCC7)ncc6c5F)C4)ccc3C2=O)C(=O)N1 [(3S)-3-(5-{[(3S)-1-{[5-fluoro-2-(oxan-4-yl)quinazolin-6-yl]methyl}pyrrolidin-3-yl]oxy}-1-oxo-2,3-dihydro-1H-isoindol-2-yl)piperidine-2,6-dione] |  |  |  | 9.88 | 0.0171 | 
O=C1CC[C@H](N2Cc3cc(O[C@H]4CCN(Cc5cc6ccc(C7CCOCC7)nc6cc5F)C4)ccc3C2=O)C(=O)N1 [(3S)-3-(5-{[(3S)-1-{[7-fluoro-2-(oxan-4-yl)quinolin-6-yl]methyl}pyrrolidin-3-yl]oxy}-1-oxo-2,3-dihydro-1H-isoindol-2-yl)piperidine-2,6-dione] |  | 0.00582 |  |  |  | 29.77
O=C1CC[C@H](N2Cc3cc(O[C@H]4CCN(Cc5cc(F)c6nc(N7CCOCC7)ccc6c5)C4)ccc3C2=O)C(=O)N1 [(3S)-3-(5-{[(3S)-1-{[8-fluoro-2-(morpholin-4-yl)quinolin-6-yl]methyl}pyrrolidin-3-yl]oxy}-1-oxo-2,3-dihydro-1H-isoindol-2-yl)piperidine-2,6-dione] |  |  |  | 12.7 | 0.00719 | 
COC[C@@H]1CN(Cc2ccc3nc(C4CCOCC4)ccc3c2)C[C@H]1Oc1ccc2c(c1)CN([C@H]1CCC(=O)NC1=O)C2=O [(3S)-3-(5-{[(3S,4S)-4-(methoxymethyl)-1-{[2-(oxan-4-yl)quinolin-6-yl]methyl}pyrrolidin-3-yl]oxy}-1-oxo-2,3-dihydro-1H-isoindol-2-yl)piperidine-2,6-dione] |  |  |  | 9.194 | 0.000728 | 
C[C@H]1c2cc(O[C@H]3CCN(Cc4ccc5nc(N6CCOCC6)ncc5c4)C3)ccc2C(=O)N1[C@H]1CCC(=O)NC1=O [(3S)-3-[(3S)-3-methyl-5-{[(3S)-1-{[2-(morpholin-4-yl)quinazolin-6-yl]methyl}pyrrolidin-3-yl]oxy}-1-oxo-2,3-dihydro-1H-isoindol-2-yl]piperidine-2,6-dione] |  | 1.18 |  |  |  | 37.95
